Laboratory results as given in paper PMC11995724, “Antibiotic target discovery by integrated phenotypic and activity-based profiling of electrophilic fragments” (Cell chemical biology, 2025).
Where a name gives a salt, the structure may show the parent alone.

Experiment: in vitro
Conditions: human, hek293t cells

Q: Which viability at 48 h, 25 µM does the source give for `N#CC(=Cc1sc2ccccc2c1Cl)C(=O)Nc1nccs1` [9-F15, 3-(3-chloro-1-benzothiophen-2-yl)-2-cyano-N-(1,3-thiazol-2-yl)prop-2-enamide] here?
A: 117%

Q: For `C=CC(=O)Nc1ccc2c(c1)N(C)CC2` [1-G13, N-(1-methyl-2,3-dihydro-1H-indol-6-yl)prop-2-enamide], which viability at 48 h, 25 µM is on record?
A: 67.7%

Q: For `O=C(CCl)N1CCSc2c([nH]c3ccccc23)C1` [6-F08, 2-chloro-1-{2H,3H,4H,5H,6H-[1,4]thiazepino[6,7-b]indol-4-yl}ethan-1-one], which viability at 48 h, 25 µM is on record?
A: 1.68%

Q: For `COCc1noc(CN2CCN(C(=O)C(C)Cl)CC2)n1` (stereo not drawn) [7-I06, 2-chloro-1-(4-{[3-(methoxymethyl)-1,2,4-oxadiazol-5-yl]methyl}piperazin-1-yl)propan-1-one], which viability at 48 h, 25 µM is on record?
A: 88.7%

Q: For `C=CC(=O)Nc1ccc2c(=O)onc(C)c2c1` [1-N12, N-(4-methyl-1-oxo-1H-2,3-benzoxazin-6-yl)prop-2-enamide], which viability at 48 h, 25 µM is on record?
A: 1.1%

Q: For `C=CC(=O)Nc1ccc2c(c1)N(CC#N)CC2` [1-C19, N-[1-(cyanomethyl)-2,3-dihydro-1H-indol-6-yl]prop-2-enamide], which viability at 48 h, 25 µM is on record?
A: 94.7%

Q: With `C=CC(=O)N(C)CC(=O)N1CCC(CN2CCCCC2=O)CC1` [2-F16, N-methyl-N-(2-oxo-2-{4-[(2-oxopiperidin-1-yl)methyl]piperidin-1-yl}ethyl)prop-2-enamide] as the molecule, how does the viability at 48 h, 25 µM read?
A: 57%

Q: With `O=C(CCl)NCC1CCCCC1` [5-J06, 2-chloro-N-(cyclohexylmethyl)acetamide] as the molecule, how does the viability at 48 h, 25 µM read?
A: 52.1%

Q: With `O=C(CCl)Nc1c(F)c(F)c(F)c(F)c1F` [4-L08, 2-chloro-N-(2,3,4,5,6-pentafluorophenyl)acetamide] as the molecule, how does the viability at 48 h, 25 µM read?
A: 1.92%

Q: Which viability at 48 h, 25 µM does the source give for `C=CC(=O)N(C)CC(=O)N1CCN(c2nsc3ccccc23)CC1` [2-N10, N-{2-[4-(1,2-benzothiazol-3-yl)piperazin-1-yl]-2-oxoethyl}-N-methylprop-2-enamide] here?
A: 1.45%

Q: Which viability at 48 h, 25 µM does the source give for `COc1ccc(CN(C)C(=O)CCl)cc1F` [4-F03, 2-chloro-N-[(3-fluoro-4-methoxyphenyl)methyl]-N-methylacetamide] here?
A: 0.725%

Q: Which viability at 48 h, 25 µM does the source give for `C#CCN1C(=O)C=CC1=O` [10-F09, 1-(prop-2-yn-1-yl)-2,5-dihydro-1H-pyrrole-2,5-dione] here?
A: 98.4%

Q: Which viability at 48 h, 25 µM does the source give for `C=CC(=O)Nc1ccnn1C(C)C` [2-O07, N-[1-(propan-2-yl)-1H-pyrazol-5-yl]prop-2-enamide] here?
A: 101%

Q: For `CC(Cl)C(=O)NC1CCCN(c2cnn(C)c2)C1` (stereo not drawn) [7-K19, 2-chloro-N-[1-(1-methyl-1H-pyrazol-4-yl)piperidin-3-yl]propanamide], which viability at 48 h, 25 µM is on record?
A: 75.7%

Q: For `CC(Cl)C(=O)N1Cc2ccccc2C(n2cccn2)C1` (stereo not drawn) [6-F20, 2-chloro-1-[4-(1H-pyrazol-1-yl)-1,2,3,4-tetrahydroisoquinolin-2-yl]propan-1-one], which viability at 48 h, 25 µM is on record?
A: 103%

Q: With `O=C(CN1CCN(C(=O)CCl)CC1)Nc1ccc(F)cc1` [4-J20, 2-[4-(2-chloroacetyl)piperazin-1-yl]-N-(4-fluorophenyl)acetamide hydrochloride] as the molecule, how does the viability at 48 h, 25 µM read?
A: 1.34%

Q: With `Cc1cc(C(=O)CCl)c(C)n1-c1cccc([N+](=O)[O-])c1` [10-B16, 2-chloro-1-[2,5-dimethyl-1-(3-nitrophenyl)-1H-pyrrol-3-yl]ethan-1-one] as the molecule, how does the viability at 48 h, 25 µM read?
A: 0.976%

Q: Which viability at 48 h, 25 µM does the source give for `CC(Cl)C(=O)Nc1ccc(C(C)(C)C)cc1` (stereo not drawn) [4-G12, N-(4-tert-butylphenyl)-2-chloropropanamide] here?
A: 66.1%

Q: For `CC(Cl)C(=O)N[C@H]1C[C@H](Cn2cncn2)C1` (stereo partly drawn) [6-D20, 2-chloro-N-[(1r,3r)-3-[(1H-1,2,4-triazol-1-yl)methyl]cyclobutyl]propanamide], which viability at 48 h, 25 µM is on record?
A: 105%

Q: For `C=CC(=O)NCCn1cnc2ccsc2c1=O` [2-N15, N-(2-{4-oxo-3H,4H-thieno[3,2-d]pyrimidin-3-yl}ethyl)prop-2-enamide], which viability at 48 h, 25 µM is on record?
A: 66%

Q: Which viability at 48 h, 25 µM does the source give for `C=CC(=O)N1CCC(C(=O)N2CCCC(O)C2)(c2ccccc2)CC1` (stereo not drawn) [2-P06, 1-[4-(3-hydroxypiperidine-1-carbonyl)-4-phenylpiperidin-1-yl]prop-2-en-1-one] here?
A: 93.3%
